Data reported in patent US9480638B2, “Cosmetic composition containing extracts of Adenophora triphylla var. japonica Hara, Angelica tenuissima and medicinal herbs” (AMOREPACIFIC CORPORATION, priority 2008, dated 2016).

Columns and labels:
[1] = Test of antioxidant effect (DPPH test); type: biochemical; conditions: sample concentration at which absorbance at 540 nm is reduced by 50%; 100 μM DPPH in ethanol, 37° C., 30 minutes
Procedure: To confirm the antioxidant effect of the composition according to the present invention, the DPPH oxidation inhibitory effect of the composition was measured. As a control, the synthetic antioxidant Trolox was used. […] The reaction solution was allowed to react at 37° C. for 30 minutes, and then measured for absorbance at 540 nm. As a control sample, the widely used synthetic antioxidant Trolox was used. In Table 1, IC50 means the sample concentration at which the absorbance is reduced by 50%.

PPARα = biological target: T1, PPARα (Mus musculus, UniProt P23204); assay: PPARα activation, PPRE promoter/luciferase reporter in transfected HaCaT cells; conditions: 10 uM positive control, PPARα expression plasmid + PPRE reporter, Control = 100
T1 sequence (P23204 1-468): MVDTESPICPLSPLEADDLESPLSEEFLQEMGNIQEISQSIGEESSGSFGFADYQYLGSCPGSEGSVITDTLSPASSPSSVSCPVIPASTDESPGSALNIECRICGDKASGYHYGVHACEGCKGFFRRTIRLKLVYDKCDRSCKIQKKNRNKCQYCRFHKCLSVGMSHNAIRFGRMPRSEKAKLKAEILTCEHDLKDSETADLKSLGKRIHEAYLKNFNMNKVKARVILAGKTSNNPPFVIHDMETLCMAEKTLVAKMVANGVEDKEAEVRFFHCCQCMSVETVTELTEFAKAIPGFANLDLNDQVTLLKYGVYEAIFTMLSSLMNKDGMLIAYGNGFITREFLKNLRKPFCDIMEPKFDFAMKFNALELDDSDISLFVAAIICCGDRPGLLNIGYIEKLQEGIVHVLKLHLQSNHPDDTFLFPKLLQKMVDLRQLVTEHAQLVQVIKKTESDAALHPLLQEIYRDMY
Procedure: Human keratinocyte HaCaT cells were subcultured in 10% fetal bovine serum-containing DMEM medium, which is a phenol red-free medium, in order to eliminate the effect caused by the phenol red's estrogen.
HaCaT cells were seeded into a 24-well plate at a density of 5×10^4 cells/well, cultured for 24 hours, and then transiently transfected with the plasmid genes. […] As a negative control group, a group treated with ethanol used to dissolve the samples was used. After 24 hours of culture, the cells were washed with PBS, harvested and measured for luciferase activity.

IC50 (DPPH analysis) [1] [ppm] | luciferase activity (PPARα) | Structure (SMILES)
65 | – | Cc1c(C)c2c(c(C)c1O)CCC(C)(C(=O)O)O2 (centres unmarked) [Trolox]
– | 300 | Cc1cccc(Nc2cc(Cl)nc(SCC(=O)O)n2)c1C [WY-14643, Wy-14,643]
